Experimental data taken from article PMC12259270, “Sensory neuron–expressed FGF13 controls nociceptive signaling in diabetic neuropathy models” (The Journal of Clinical Investigation, 2025).
Residues, ends and D or L forms follow the SMILES beside them. *: point of attachment. Cbz = O=C(OCc1ccccc1)*; OtBu = CC(C)(C)O*

Biological target: T1, human Nav1.7 (Homo sapiens, UniProt Q15858)
T1 construct: expressed in transfected cells; host or cells: HEK293 stably expressing human Nav1.7
Assay: Whole-cell patch-clamp, HEK293 cells stably expressing human Nav1.7 with GFP or FGF13-GFP
Format: cell-based
Set-up: Nav1.7 repriming time course, Mean / Figure 4I, Mean versus Time (ms): unit not given here
Conditions: for use dependency, normalized INa amplitude, Mean: Fig 1I; for long-term inactivation, Mean: Fig 1J; for Nav1.7 repriming time course, Mean: Fig 1K; for Nav1.7 repriming time course, Mean / Time constant of repriming, Mean: PW164; for Time constant of repriming, Mean: Fig 1L
Experimental: Whole-cell patch clamp electrophysiology
HEK293-Nav1.7 cells, HEK293 stably expressing human Nav1.6 (HEK-Nav1.6), HEK293 stably expressing human Nav1.5 (HEK-Nav1.5), human hIPSC-derived sensory neurons (RealDRGTM from Anatomic Incorporated 1020F1-1M) and donor-derived DRG neurons were plated at low density on glass coverslips and processed for whole-cell patch clamp electrophysiology in voltage-clamp and/or current clamp mode. Whole-cell patch electrophysiological experiments were conducted following previously published studies (26). Current densities were obtained by dividing INa amplitude by membrane capacitance. Current –voltage relationships were generated by plotting current density as a function of the […]. Conductance (G Na) was calculated by the […]
where INa is the current amplitude at voltage Vm, and Erev is the Na+ reversal potential.
Activation curves were derived by plotting normalized GNa as a function of test potential and fitted using […]
Where GNa,Max is the maximum conductance, Va is the membrane potential of half-maximal activation, Em is the membrane voltage and k is the slope factor. For steady -state inactivation, normalized current amplitude (INa/INa,Max) at the test potential was plotted as a function of prepulse potential (Vm) and fitted using the […]
Where Vh is the potential of half-maximal inactivation, E m is the membrane voltage, and k is the slope factor.
Transient INa inactivation decay was estimated with the standard exponential equation. Inactivation time constant (tau, τ) was fitted with the following equation: […]
where I(t) is the amplitude of the current at time t and Iss is the steady-state current during a single voltage-step.
The goodness of fitting was determined by correlation coefficient (R), and the cutoff of R was set at 0.85. To observe effects on long-term inactivation (LTI), a four-step protocol was employed during which cells were subjected to four 0 mV, 20 ms depolarization pulses separated by −90 mV, 40 ms recovery intervals. To control for various cell sizes, the current densities were calculated by dividing INa peak current amplitude/membrane capacitance (Cm). To represent the fraction of channels entering into LTI, the peak INa observed during depolarization cycles 2-4 was normalized to the peak INa observed during depolarization cycle 1 (INa/INa,Cycle 1) and plotted as a function of the depolarization cycle.
The cumulative (frequency-dependent) use-dependency was determined by applying 20 pulses with a depolarization to −10 mV (50 ms duration) and 50 ms recovery intervals with a train of 20 pulses at 10 Hz from a holding potential at -70 mV. The current pulses were normalized to the first reco rded pulse and the currents at the 2nd to 20th pulses were compared. The same train was used to record use-dependency at various frequencies […]
The rate of recovery from inactivation was recorded at -80 mV with a standard repriming voltage protocol.
The cells were prepulsed to -20 mV for 20 ms to inactivate all currents, then driven back to the recovery potential (Vrec) for increasing recovery durations before the test pulse to 0 mV. The maximum pulse rate was 0.5 Hz. The […]
follows previous publications (16). The time constants were estimated from single exponential decay to time courses measured at recovery potentials ranging from -140 to -60 mV with the protocol as mentioned above.
Electrophysiological Recordings
HEK293 cells: Electrophysiological recordings in HEK293 stably expressing Nav1.7 (HEK-Nav1.7), Nav1.5 (HEK-Nav1.5) or Nav1.6 (HEK-Nav1.6) were performed at room temperature using a MultiClamp 700B or an Axopatch 200B amplifier (Molecular Devices) after incubating coverslips for 60 minutes either with 0.1% DMSO or 50 μM PW164 or ZL192 in the extracellular solution. The composition of recording solutions consisted of the […]
following salts: extracellular (mM): 140 NaCl, 3 KCl, 1 MgCl2, 1 CaCl2, 10 HEPES, 10 glucose, pH 7.3; […]
intracellular (mM): 130 CH3O3 SCs, 1 EGTA, 10 NaCl, 10 HEPES, pH 7.3. […]

T1 sequence (Q92913 1-192 partner limits assumed): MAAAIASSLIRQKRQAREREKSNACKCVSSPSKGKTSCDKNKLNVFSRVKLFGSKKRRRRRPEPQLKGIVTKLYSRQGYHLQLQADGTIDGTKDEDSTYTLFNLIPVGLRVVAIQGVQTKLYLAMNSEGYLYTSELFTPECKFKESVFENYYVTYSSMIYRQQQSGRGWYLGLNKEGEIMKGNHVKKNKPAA
T1 sequence (Q15858 1-1977 isoform Q15858-3): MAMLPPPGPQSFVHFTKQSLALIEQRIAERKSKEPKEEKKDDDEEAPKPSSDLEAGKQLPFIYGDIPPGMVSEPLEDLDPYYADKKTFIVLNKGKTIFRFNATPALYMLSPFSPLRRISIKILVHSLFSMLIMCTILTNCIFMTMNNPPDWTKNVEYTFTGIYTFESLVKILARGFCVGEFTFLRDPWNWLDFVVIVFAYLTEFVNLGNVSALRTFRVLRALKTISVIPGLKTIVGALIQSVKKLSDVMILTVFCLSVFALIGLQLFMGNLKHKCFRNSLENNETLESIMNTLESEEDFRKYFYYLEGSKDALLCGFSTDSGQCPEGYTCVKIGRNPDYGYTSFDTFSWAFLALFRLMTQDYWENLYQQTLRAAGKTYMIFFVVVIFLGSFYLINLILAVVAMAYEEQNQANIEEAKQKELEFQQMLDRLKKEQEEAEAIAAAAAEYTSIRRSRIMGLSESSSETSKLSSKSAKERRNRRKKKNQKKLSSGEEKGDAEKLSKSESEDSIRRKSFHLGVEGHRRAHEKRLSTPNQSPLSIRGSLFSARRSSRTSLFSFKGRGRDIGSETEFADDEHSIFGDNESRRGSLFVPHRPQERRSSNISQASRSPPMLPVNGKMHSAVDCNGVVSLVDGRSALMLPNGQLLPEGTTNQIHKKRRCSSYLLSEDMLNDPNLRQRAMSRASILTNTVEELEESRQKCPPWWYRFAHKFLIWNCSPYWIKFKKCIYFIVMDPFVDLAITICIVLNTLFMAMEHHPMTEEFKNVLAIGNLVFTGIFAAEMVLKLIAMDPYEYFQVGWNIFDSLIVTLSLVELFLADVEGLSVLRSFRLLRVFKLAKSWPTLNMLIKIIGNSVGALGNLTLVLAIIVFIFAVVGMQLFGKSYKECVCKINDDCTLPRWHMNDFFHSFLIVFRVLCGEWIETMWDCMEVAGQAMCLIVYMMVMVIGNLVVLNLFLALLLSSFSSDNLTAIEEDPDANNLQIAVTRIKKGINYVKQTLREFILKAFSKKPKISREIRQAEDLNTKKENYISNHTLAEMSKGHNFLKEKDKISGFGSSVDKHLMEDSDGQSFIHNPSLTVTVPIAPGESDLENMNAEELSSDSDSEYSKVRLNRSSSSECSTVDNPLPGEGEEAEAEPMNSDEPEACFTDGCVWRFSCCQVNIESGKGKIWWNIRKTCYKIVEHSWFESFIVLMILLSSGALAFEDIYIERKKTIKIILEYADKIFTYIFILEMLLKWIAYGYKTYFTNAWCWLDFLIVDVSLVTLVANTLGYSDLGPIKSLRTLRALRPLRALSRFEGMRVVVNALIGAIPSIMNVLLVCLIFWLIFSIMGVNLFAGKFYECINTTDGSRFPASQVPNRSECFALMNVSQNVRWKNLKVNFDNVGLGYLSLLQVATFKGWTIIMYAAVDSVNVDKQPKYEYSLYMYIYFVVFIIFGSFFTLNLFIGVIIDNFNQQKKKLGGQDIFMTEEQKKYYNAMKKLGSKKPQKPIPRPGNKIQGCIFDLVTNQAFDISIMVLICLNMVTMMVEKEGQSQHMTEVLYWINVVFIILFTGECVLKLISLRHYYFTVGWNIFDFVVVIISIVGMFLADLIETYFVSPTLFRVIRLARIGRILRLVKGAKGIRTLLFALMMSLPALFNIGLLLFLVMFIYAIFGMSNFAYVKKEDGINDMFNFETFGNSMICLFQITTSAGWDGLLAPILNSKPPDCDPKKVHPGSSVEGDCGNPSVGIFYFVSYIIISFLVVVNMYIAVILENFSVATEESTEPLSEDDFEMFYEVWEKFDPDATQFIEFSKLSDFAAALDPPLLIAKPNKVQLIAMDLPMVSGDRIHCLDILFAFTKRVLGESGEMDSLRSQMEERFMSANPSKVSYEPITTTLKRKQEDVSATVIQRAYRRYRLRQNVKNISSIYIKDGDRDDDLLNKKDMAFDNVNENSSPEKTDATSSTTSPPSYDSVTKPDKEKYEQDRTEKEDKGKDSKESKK

Structure (SMILES): COC(=O)[C@@H](NC(=O)[C@H](CCC(=O)OC(C)(C)C)NC(=O)[C@H](CC(C)C)NC(=O)[C@@H]1CCCN1C(=O)OCc1ccccc1)C(C)C [PW164] (Cbz-PLE(OtBu)V-OMe)
- use dependency, normalized INa amplitude, Mean (FGF13-GFP + PW164, Pulse 1): 1
- use dependency, normalized INa amplitude, Mean (FGF13-GFP + PW164, Pulse 3): 0.7166
- use dependency, normalized INa amplitude, Mean (FGF13-GFP + PW164, Pulse 6): 0.6629
- use dependency, normalized INa amplitude, Mean (FGF13-GFP + PW164, Pulse 10): 0.6585
- use dependency, normalized INa amplitude, Mean (FGF13-GFP + PW164, Pulse 15): 0.6477
- use dependency, normalized INa amplitude, Mean (FGF13-GFP + PW164, Pulse 20): 0.6421
- use dependency, normalized INa amplitude, Mean (GFP + PW164, Pulse 1): 1
- use dependency, normalized INa amplitude, Mean (GFP + PW164, Pulse 3): 0.9017
- use dependency, normalized INa amplitude, Mean (GFP + PW164, Pulse 6): 0.9079
- use dependency, normalized INa amplitude, Mean (GFP + PW164, Pulse 10): 0.9071
- use dependency, normalized INa amplitude, Mean (GFP + PW164, Pulse 15): 0.9039
- use dependency, normalized INa amplitude, Mean (GFP + PW164, Pulse 20): 0.8633
- long-term inactivation, Mean (FGF13-GFP + PW164, Pulse 1): 100
- long-term inactivation, Mean (FGF13-GFP + PW164, Pulse 2): 69.7175
- long-term inactivation, Mean (FGF13-GFP + PW164, Pulse 3): 60.3266
- long-term inactivation, Mean (FGF13-GFP + PW164, Pulse 4): 59.3421
- long-term inactivation, Mean (GFP + PW164, Pulse 1): 100
- long-term inactivation, Mean (GFP + PW164, Pulse 2): 67.9412
- long-term inactivation, Mean (GFP + PW164, Pulse 3): 62.3462
- long-term inactivation, Mean (GFP + PW164, Pulse 4): 60.9288
- Nav1.7 repriming time course, Mean (Nav1.7 + FGF13-GFP, Time (ms) 2): -1.745
- Nav1.7 repriming time course, Mean (Nav1.7 + FGF13-GFP, Time (ms) 5): -3.217
- Nav1.7 repriming time course, Mean (Nav1.7 + FGF13-GFP, Time (ms) 9): -6.791
- Nav1.7 repriming time course, Mean (Nav1.7 + FGF13-GFP, Time (ms) 17): -10.2331
- Nav1.7 repriming time course, Mean (Nav1.7 + FGF13-GFP, Time (ms) 33): -13.6908
- Nav1.7 repriming time course, Mean (Nav1.7 + FGF13-GFP, Time (ms) 65): -18.7676
- Nav1.7 repriming time course, Mean (Nav1.7 + FGF13-GFP, Time (ms) 129): -22.4288
- Nav1.7 repriming time course, Mean (Nav1.7 + FGF13-GFP, Time (ms) 257): -26.5719
- Nav1.7 repriming time course, Mean (Nav1.7 + FGF13-GFP, Time (ms) 513): -28.3171
- Nav1.7 repriming time course, Mean (Nav1.7 + FGF13-GFP, Time (ms) 1025): -29.4614
- Nav1.7 repriming time course, Mean (Nav1.7 + FGF13-GFP, Time (ms) 2000): -30.5045
- Nav1.7 repriming time course, Mean (Nav1.7 + GFP, Time (ms) 2): -0.8155
- Nav1.7 repriming time course, Mean (Nav1.7 + GFP, Time (ms) 5): -1.631
- Nav1.7 repriming time course, Mean (Nav1.7 + GFP, Time (ms) 9): -4.0928
- Nav1.7 repriming time course, Mean (Nav1.7 + GFP, Time (ms) 17): -9.754
- Nav1.7 repriming time course, Mean (Nav1.7 + GFP, Time (ms) 33): -14.6809
- Nav1.7 repriming time course, Mean (Nav1.7 + GFP, Time (ms) 65): -21.498
- Nav1.7 repriming time course, Mean (Nav1.7 + GFP, Time (ms) 129): -26.6853
- Nav1.7 repriming time course, Mean (Nav1.7 + GFP, Time (ms) 257): -32.6576
- Nav1.7 repriming time course, Mean (Nav1.7 + GFP, Time (ms) 513): -33.7798
- Nav1.7 repriming time course, Mean (Nav1.7 + GFP, Time (ms) 1025): -35.5926
- Nav1.7 repriming time course, Mean (Nav1.7 + GFP, Time (ms) 2000): -36.9364
- Time constant of repriming, Mean (Nav1.7 + FGF13-GFP, recovery potential -60): 51.44 ms
- Time constant of repriming, Mean (Nav1.7 + FGF13-GFP, recovery potential -70): 60.77 ms
- Time constant of repriming, Mean (Nav1.7 + FGF13-GFP, recovery potential -80): 68.88 ms
- Time constant of repriming, Mean (Nav1.7 + FGF13-GFP, recovery potential -90): 64.58 ms
